# Assay results taken from patent US10023575B2, “Cyclic ether derivatives of pyrazolo[1,5-a]pyrimidine-3-carboxyamide” (Boehringer Ingelheim International GmbH, priority 2015, dated 2018).
# Assays:
# PDE 2A = PDE 2A (Homo sapiens (Human), UniProt O00408); assay: Phosphodiesterase (PDE) 2A assay with fluorescent substrate (IMAP, fluorescence polarization); format: biochemical; details: labeled cAMP 30 nM, read-out: PDE2 IC50
# Protocol: (§1) The PDE reaction cleaves cAMP to AMP. The IMAP system (Molecular Device) using fluorescence polarization (FP) as detection principle was used to measure enzyme activity. A fluorescent labeled cAMP was used as substrate for the reaction, generating a labeled AMP. The fluorescent AMP binds specifically to the large M(III)-based nano-particles which reduces the rotational speed of the substrate and thus increases its polarization.
# (§2) The inhibition of PDE 2A or 10 enzyme activity was assessed using IMAP-Phosphodiesterase-cAMP fluorescence labeled substrate (Molecular Devices, Order No. R7506), IMAP TR-FRET screening express (Molecular Devices, Order No. R8160, the TR-FRET component will not be used) and PDE 2A or PDE10 protein expressed upon baculovirus infection in SF9 cells. The cells were incubated after infection for ˜3 days and protein production was confirmed by Western Blot. The cells were collected by centrifugation and the pellet frozen in liquid nitrogen before it was resuspended in PBS containing 1% Triton X-100 and protease inhibitors. After 45 min incubation on ice, the cell debris was removed by centrifugation (13.000 rpm, 30 min).
# (§3) All reactions were performed in 384 well plates, Perkin Elmer black optiplates and IMAP reaction buffer with 0.1% Tween20 (kit component)
# (§4) Compounds were serial diluted in DMSO. With an intermediate dilution step with reaction buffer DMSO concentration was reduced to achieve 1% DMSO in the assay reaction. Setup of the assay started with 10 μl enzyme (˜10 ng/well, depending on prep. batch), 5 μl compound, reaction was started by addition of 5 μl labeled cAMP (30 nM, final concentration), immediately mixed for 15 seconds on a Eppendorf mixmate (2000 rpm) followed by an incubation at room temperature for 90 minutes in the dark. Reaction is stopped by adding of 60 μl binding buffer for FP/cAMP (kit component).
# (§5) Each assay plate contained wells with vehicle controls (1% DMSO) for the measurement of non-inhibited reaction (=100% control) and wells without enzyme as 0% controls.
# PDE10 = PDE10 (Homo sapiens (Human), UniProt Q9Y233); assay: Phosphodiesterase (PDE) 10 assay with fluorescent substrate (IMAP, fluorescence polarization); format: biochemical; details: labeled cAMP 30 nM
# Chain of PDE10 (Q9Y233 whole entry): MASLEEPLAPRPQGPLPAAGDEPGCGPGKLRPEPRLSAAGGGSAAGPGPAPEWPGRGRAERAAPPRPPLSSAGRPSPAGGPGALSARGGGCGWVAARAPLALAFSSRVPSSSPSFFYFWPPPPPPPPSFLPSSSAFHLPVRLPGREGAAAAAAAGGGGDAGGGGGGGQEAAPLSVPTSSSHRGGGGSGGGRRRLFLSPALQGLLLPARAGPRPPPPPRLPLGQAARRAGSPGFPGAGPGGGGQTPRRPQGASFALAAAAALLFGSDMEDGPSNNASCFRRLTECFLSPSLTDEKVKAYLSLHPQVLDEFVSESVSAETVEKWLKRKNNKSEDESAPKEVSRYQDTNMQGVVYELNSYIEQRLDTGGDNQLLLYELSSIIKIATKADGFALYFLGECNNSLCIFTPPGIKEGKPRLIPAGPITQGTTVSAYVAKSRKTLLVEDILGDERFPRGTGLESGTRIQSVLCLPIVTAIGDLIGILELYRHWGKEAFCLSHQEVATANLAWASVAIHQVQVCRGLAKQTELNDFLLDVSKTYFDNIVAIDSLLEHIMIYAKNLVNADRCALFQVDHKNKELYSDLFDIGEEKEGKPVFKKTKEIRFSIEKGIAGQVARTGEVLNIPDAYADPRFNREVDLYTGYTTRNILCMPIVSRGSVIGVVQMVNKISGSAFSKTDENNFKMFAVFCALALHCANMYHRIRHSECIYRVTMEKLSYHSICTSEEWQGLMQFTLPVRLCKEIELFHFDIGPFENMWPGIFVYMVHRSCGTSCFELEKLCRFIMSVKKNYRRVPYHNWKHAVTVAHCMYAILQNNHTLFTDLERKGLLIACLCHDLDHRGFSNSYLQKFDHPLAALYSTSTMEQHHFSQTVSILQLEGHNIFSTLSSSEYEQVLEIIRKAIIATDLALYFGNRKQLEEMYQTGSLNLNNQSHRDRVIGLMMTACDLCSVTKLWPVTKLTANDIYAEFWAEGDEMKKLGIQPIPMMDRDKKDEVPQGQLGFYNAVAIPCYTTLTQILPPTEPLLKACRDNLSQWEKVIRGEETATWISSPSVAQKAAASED
# Protocol: as §1, §2, §3, §4, §5
# Chain of PDE 2A (O00408 whole entry, species assumed): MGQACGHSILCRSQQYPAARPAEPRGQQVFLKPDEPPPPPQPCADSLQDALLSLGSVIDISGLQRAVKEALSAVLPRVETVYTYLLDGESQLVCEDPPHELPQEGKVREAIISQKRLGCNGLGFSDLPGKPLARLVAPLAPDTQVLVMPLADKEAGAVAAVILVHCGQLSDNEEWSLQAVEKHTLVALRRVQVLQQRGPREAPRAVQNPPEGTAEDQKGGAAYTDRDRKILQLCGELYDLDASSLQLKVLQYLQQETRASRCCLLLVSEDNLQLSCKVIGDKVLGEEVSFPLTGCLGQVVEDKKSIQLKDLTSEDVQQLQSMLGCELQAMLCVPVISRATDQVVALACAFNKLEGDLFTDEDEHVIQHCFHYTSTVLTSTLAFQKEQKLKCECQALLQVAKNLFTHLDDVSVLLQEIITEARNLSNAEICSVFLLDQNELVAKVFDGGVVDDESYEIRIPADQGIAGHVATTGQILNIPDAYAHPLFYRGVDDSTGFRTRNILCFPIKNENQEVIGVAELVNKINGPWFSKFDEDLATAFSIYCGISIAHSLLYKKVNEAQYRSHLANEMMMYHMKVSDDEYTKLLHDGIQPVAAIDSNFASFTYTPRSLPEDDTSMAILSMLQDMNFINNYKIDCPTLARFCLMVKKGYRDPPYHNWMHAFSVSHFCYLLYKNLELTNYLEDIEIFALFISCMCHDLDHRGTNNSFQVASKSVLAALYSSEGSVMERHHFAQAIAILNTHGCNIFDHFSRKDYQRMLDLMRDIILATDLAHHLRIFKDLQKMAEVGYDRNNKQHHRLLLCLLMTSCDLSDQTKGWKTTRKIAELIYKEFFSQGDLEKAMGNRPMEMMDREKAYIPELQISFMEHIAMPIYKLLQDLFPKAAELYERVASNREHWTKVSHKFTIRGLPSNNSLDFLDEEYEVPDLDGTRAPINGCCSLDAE
IC50 (PDE 2A) [nM],IC50 (PDE10) [nM],SMILES
67,> 10000,O=C(NC1(c2ccc(C(F)(F)F)cc2)CCCOC1)c1cnn2cc(C3CC3)cnc12 (racemic) [Example 32]
83,> 10000,O=C(NC1(c2ccc(OC(F)(F)F)cc2)CCCOC1)c1cnn2cc(C3CC3)cnc12 (racemic) [Example 33]
27,10800,O=C(NC1(c2ccc(C(F)(F)F)cc2F)CCOC1)c1cnn2cc(C3CC3)cnc12 (racemic) [Example 34]
,> 10000,Cc1cnc2c(C(=O)NC3(c4ccc(C(F)(F)F)cc4)CCOC3)cnn2c1 (racemic) [Example 36]
331,6710,O=C(NC1(c2ccc(Cl)cc2F)CCOC1)c1cnn2cc(C3CC3)cnc12 (racemic) [Example 38]
568,> 10000,Cc1cnc2c(C(=O)NC3(c4ccc(Cl)cc4F)CCOC3)cnn2c1 (racemic) [Example 39]
130,5590,Cc1nn2cc(C3CC3)cnc2c1C(=O)NC1(c2ccc(C(F)(F)F)nc2)CCOC1 (racemic) [Example 42]
840,,Cc1cnc2c(C(=O)NC3(c4ccc(C(F)(F)F)cn4)CCOC3)c(C)nn2c1 (racemic) [Example 44]
,> 10000,Cc1cnc2c(C(=O)NC3(c4ccc(C(F)(F)F)cc4F)CCOCC3O)cnn2c1 (racemic) [Example 47]
1.35,6620,O=C(N[C@]1(c2ccc(C(F)(F)F)cc2F)CCOC[C@H]1O)c1cnn2cc(C3CC3)cnc12 (racemic) [Example 48]
70,> 10000,O=C(N[C@]1(c2ccc(C(F)(F)F)cc2F)CCOC[C@@H]1O)c1cnn2cc(C3CC3)cnc12 (racemic) [Example 49]
596,> 10000,Cc1cnc2c(C(=O)NC3(c4ccc(C(F)(F)F)nc4)CCOCC3O)cnn2c1 (racemic) [Example 50]
231,> 10000,O=C(NC1(c2ccc(C(F)(F)F)nc2)CCOCC1O)c1cnn2cc(C3CC3)cnc12 (racemic) [Example 52]
229,> 10000,Cc1cnc2c(C(=O)NC3(c4ncc(C(F)(F)F)cc4F)CCOCC3O)cnn2c1 (racemic) [Example 56]
127,,Cc1nn2cc(C3CC3)cnc2c1C(=O)NC1(c2ncc(C(F)(F)F)cc2F)CCOCC1(C)O (racemic) [Example 62]
,> 10000,"Cc1cnc2c(C(=O)NC3(c4ccc(C(F)(F)F)cc4F)COCC3O)cnn2c1 (single isomer, unassigned) [Example 72]"
,> 10000,"Cc1cnc2c(C(=O)NC3(c4ccc(C(F)(F)F)cc4F)COCC3O)cnn2c1 (single isomer, unassigned) [Example 73]"
,> 10000,"Cc1cnc2c(C(=O)NC3(c4ccc(C(F)(F)F)cc4F)COCC3O)cnn2c1 (single isomer, unassigned) [Example 74]"
,> 10000,"Cc1cnc2c(C(=O)NC3(c4ccc(C(F)(F)F)cc4F)COCC3O)cnn2c1 (single isomer, unassigned) [Example 75]"
184,,"Cc1cnc2c(C(=O)NC3(c4ccc(C(F)(F)F)nc4)CCOCC3O)cnn2c1 (single isomer, unassigned) [Example 87b]"
,> 10000,"Cc1cnc2c(C(=O)NC3(c4ccc(C(F)(F)F)cc4F)COCC3(C)O)cnn2c1 (single isomer, unassigned) [Example 92a]"
,> 10000,"Cc1cnc2c(C(=O)NC3(c4ccc(C(F)(F)F)cc4F)COCC3(C)O)cnn2c1 (single isomer, unassigned) [Example 92b]"
,> 10000,"Cc1cnc2c(C(=O)NC3(c4ccc(C(F)(F)F)cc4F)COCC3(C)O)cnn2c1 (single isomer, unassigned) [Example 93a]"
,> 10000,"Cc1cnc2c(C(=O)NC3(c4ccc(C(F)(F)F)cc4F)COCC3(C)O)cnn2c1 (single isomer, unassigned) [Example 93b]"
,> 10000,Cc1cnc2c(C(=O)NC3(c4ccc(C(F)(F)F)cc4F)COCC3(C)O)cnn2c1 (stereo not drawn) [Example 58]
